How the values were obtained:
mouse GLP-1 receptor [1] = biological target: T1, mouse GLP-1 receptor (Mus musculus, UniProt O35659); test: radioligand binding assay, [125I]GLP-1(7-36), βTC6 cell membrane homogenates
T1 construct: βTC6 cells which express GLP-1R endogenously; host or cells: βTC6 cells
T1 sequence (O35659 22-463): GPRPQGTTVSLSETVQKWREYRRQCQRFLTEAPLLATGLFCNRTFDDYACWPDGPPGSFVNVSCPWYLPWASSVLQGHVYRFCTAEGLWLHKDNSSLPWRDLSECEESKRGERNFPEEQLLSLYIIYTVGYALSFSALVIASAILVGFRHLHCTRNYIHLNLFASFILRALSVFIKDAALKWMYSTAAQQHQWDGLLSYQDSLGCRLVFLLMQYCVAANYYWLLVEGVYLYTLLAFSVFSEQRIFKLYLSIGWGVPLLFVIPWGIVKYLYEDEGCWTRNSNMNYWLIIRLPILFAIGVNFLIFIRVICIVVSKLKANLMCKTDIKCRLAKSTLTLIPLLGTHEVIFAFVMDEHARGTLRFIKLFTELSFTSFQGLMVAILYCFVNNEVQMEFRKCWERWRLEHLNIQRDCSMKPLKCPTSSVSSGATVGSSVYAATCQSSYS
Protocol: In vitro pharmacology: Affinity (IC50)
and 1% BSA. […] Following
incubation, the samples are filtered rapidly under vacuum through glass fiber filters (GF/B, Packard)
presoaked with 0.3% PEI and rinsed several times with an ice-cold buffer containing 50 mM Tris-HCl
and 500 mM NaCl using a 96-sample cell harvester (Unifilter, Packard). The filters are dried then
counted for radioactivity in a scintillation counter (Topcount, Packard) using a scintillation cocktail
(Microscint 0, Packard). The results are expressed as a percent inhibition of the control radioligand
at several concentrations to obtain a competition curve from which its IC50 is calculated using

[2] = mouse plasma degradation assay (Methods MP1-MP3); type: in vitro ADME; conditions: mouse plasma diluted 1/1 with PBS; mouse plasma/PBS pH 7.4 (1/1), 5 µM, 37 °C, acetonitrile quench, LC-MS extracted ion chromatogram; MP1 for 2-8, MP2 for 9-11, MP3 for 12-14; mean, n = 3; read-out: Mouse plasma t1/2 (converted)
Protocol: The oligomer was then diluted 1/50 with a solution of plasma/PBS pH 7.4 (1/1) to afford a final concentration of 5μM and incubated at 37°C. […] (t = 0 min was determined using the reaction without plasma). The samples were frozen at -80°C before analysis. […] The supernatant was analyzed by LC-MS. The time course of oligomer degradation was determined by integrating the area of the peak in the extracted ion chromatogram. […] The oligomer was then diluted 1/50 with a solution of plasma/PBS pH 7.4 (1/1) to afford a final concentration of 5μM and incubated at 37°C. […] The oligomer was then diluted 1/50 with a solution of plasma/PBS pH 7.4 (1/1) to afford a final concentration of 5μM and incubated at 37°C. […] Animals. […] A standard chow diet (RM1 (E) 801492, SDS) and tap water were provided ad libitum. All animal protocols done by Physiogenex S.A.S were reviewed and approved by the local (Comité […] national ([…]

mouse GLP-1 receptor [3] = biological target: T1, mouse GLP-1 receptor; test: cAMP production in βTC6 cells expressing GLP-1R endogenously (Method C2); type: cell-based
Protocol: (§1)  HEK-293T cells (Multispan inc., lot#.DC1267-062017) were suspended in cell culture media
(§2) (DMEM 1X + GlutaMAX (Gibco 31966-021)) complemented with FBS 10% (Sigma Aldrich
(§3)  βTC6 cells were suspended in HBSS buffer (Invitrogen) complemented with 20 mM HEPES (pH
(§4) In vitro pharmacology on HEK-293T cells (EC50: Method C1)
(§5) cells (Multispan inc., lot#.DC1267-062017) was determined by measuring their effects on cAMP
(§6) production using the HTRF detection method (performed by UREkA SARL). The cells were distributed
(§7) in 384-well microplates at a density of 1.0x10^4 cells/well. Stock solutions of the test compounds or the
(§8) reference agonist were prepared at a concentration of 1 mM in DMSO. Then, compounds to be tested
(§9) were diluted in cell culture media and transferred to the plate containing the cells to reach final assay

GLP-1R = GLP-1R (Homo sapiens, UniProt P43220); test: cAMP production functional assay in HEK293 cells transfected with GLP-1R (Method C1); type: cell-based; parameters: host or cells: HEK-293T
GLP-1R, sequence (P43220 24-463): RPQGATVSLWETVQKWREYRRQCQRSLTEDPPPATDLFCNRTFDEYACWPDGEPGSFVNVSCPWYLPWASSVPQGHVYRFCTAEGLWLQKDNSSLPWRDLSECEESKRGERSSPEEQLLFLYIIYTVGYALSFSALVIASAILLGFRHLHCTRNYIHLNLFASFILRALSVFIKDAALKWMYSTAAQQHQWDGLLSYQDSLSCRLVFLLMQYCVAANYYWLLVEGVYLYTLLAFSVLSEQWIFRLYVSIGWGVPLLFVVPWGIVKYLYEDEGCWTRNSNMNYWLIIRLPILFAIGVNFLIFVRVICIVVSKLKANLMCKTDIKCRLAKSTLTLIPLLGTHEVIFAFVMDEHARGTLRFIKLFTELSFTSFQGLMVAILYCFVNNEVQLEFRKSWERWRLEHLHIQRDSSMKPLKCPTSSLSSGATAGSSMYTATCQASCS
Protocol: as §1, §2, §3, §4, §5, §6, §7, §8, §9

- IC50 (mouse GLP-1 receptor [1]): 32000 pM
- half-life at 5 µM [2]: 14.4 min
- Potency (%), Table S1 (mouse GLP-1 receptor [3]; from EC50 in βTC6 cAMP assay, footnote: compare to GLP-1-NH2 (2)): 70%
- EC50 (mouse GLP-1 receptor [3]; read-out: EC50 (GLP-1R potency), Table S1): 140 pM
- EC50 (GLP-1R; HEK-293T cells exogenously expressing human GLP-1R, cAMP by HTRF, 10 min at 37 °C, Method C1, mean, n = 3 (2: n = 6), read-out: EC50 (GLP-1R potency)): 2.7 pM
- Potency (%), percentage of potency compared to GLP-1-NH2 (GLP-1R; from EC50 in HEK293 GLP-1R cAMP assay): 117%
SMILES: CC[C@H](C)[C@H](NC(=O)[C@H](Cc1ccccc1)NC(=O)[C@H](CCC(=O)O)NC(=O)[C@H](CCCCN)NC(=O)[C@H](C)NC(=O)[C@H](C)NC(=O)[C@H](CCC(N)=O)NC(=O)CNC(=O)[C@H](CCC(=O)O)NC(=O)[C@H](CC(C)C)NC(=O)[C@H](Cc1ccc(O)cc1)NC(=O)[C@H](CO)NC(=O)[C@H](CO)NC(=O)[C@@H](NC(=O)[C@H](CC(=O)O)NC(=O)[C@H](CO)NC(=O)[C@@H](NC(=O)[C@H](Cc1ccccc1)NC(=O)[C@@H](NC(=O)CNC(=O)[C@H](CCC(=O)O)NC(=O)NC[C@H](C)NC(=O)[C@@H](N)Cc1c[nH]cn1)[C@@H](C)O)[C@@H](C)O)C(C)C)C(=O)N[C@@H](C)C(=O)N[C@@H](Cc1c[nH]c2ccccc12)C(=O)N[C@@H](CC(C)C)C(=O)N[C@H](C(=O)N[C@@H](CCCCN)C(=O)NCC(=O)N[C@@H](CCCNC(=N)N)C(=O)NCC(N)=O)C(C)C [compound 3]
